Literature values in publication PMC6264278, “Corydaline Inhibits Multiple Cytochrome P450 and UDP-Glucuronosyltransferase Enzyme Activities in Human Liver Microsomes” (Molecules, 2011).

What was measured:
CYP2D6 = system: CYP2D6; design: method as in PMID 21425377, PMID 14570772; details: read-out: IC50, inhibitory effect on CYP2D6 activity; cited from earlier work
UGT1A9 = system: UGT1A9; design: method as in PMID 21245288; details: read-out: Ki, UGT1A9 inhibition; cited from earlier work
CYP2C9 = details: read-out: IC50, CYP2C9 inhibition; cited from earlier work

Structure (SMILES) | IC50 (CYP2D6) [µM] | also measured
COc1ccc2cc3[n+](cc2c1OC)CCc1cc2c(cc1-3)OCO2 [berberine] | 49.4 | –
O=C(O)c1cccnc1Nc1cccc(C(F)(F)F)c1 [niflumic acid] | – | Ki (UGT1A9): 0.1 to 0.4 µM
COc1cc2c(cc1OC)-c1cc3ccc(OC)c(OC)c3c[n+]1CC2 [palmatine] | 92.6 | –
